# Assay: method code SF-AS, from PMID: 4083029
# Settings: pH 5.0
row,Compound,logD
1,Cc1ccn2c(=O)c3c(nc2c1)CCCCC3,1.86
2,O=c1c2ccccc2nc2n1CCCC2,1.49
3,Cc1cccc2nc3n(c(=O)c12)CCC3,1.59
4,Cc1cccc2nc3c(c(=O)n12)CCCCC3,1.91
5,Cc1ccc2c(=O)n3c(nc2c1)CCCCC3,2.44
6,Cc1ccc2nc3c(c(=O)n2c1)CCCCC3,2.07

# Continued, values first:
row,logD,Compound
1,1.61,O=c1c2c(nc3n1CCCCCC3)CCC2
2,1.6,O=c1c2c(nc3n1CCCC3)CCCCC2
3,2.43,O=c1c2c(nc3n1CCCCCC3)CCCCC2
4,2.13,O=c1c2c(nc3n1CCCCCC3)CCCC2
5,1.63,O=c1c2c(nc3ccccn13)CCCCC2
6,2.41,O=c1c2c(nc3n1CCCCC3)CCCCCC2
7,2.29,O=c1c2c(nc3ccccn13)CCCCCC2
